Source: article PMC10610188, “Structure–Activity Relationship Studies of Chalcones and Diarylpentanoids with Antitumor Activity: Potency and Selectivity Optimization” (Pharmaceuticals, 2023)

Experiments:
HCT116 p53^+/+ cells = assay: SRB growth inhibition assay in HCT116 p53+/+ cells; format: cell-based, human; details: SRB assay, 48 h of treatment
Method: (§1) To study the in vitro antitumor potential of chalcone CM-M345 (1) and diarylpentanoid BP-C4 (2) analogues, the sulforhodamine B (SRB) assay was used to evaluate the antiproliferative activity in human colorectal HCT116 cancer cells. To assess their cytotoxicity toward normal cells, the antiproliferative effect of these compounds was also tested in human fibroblasts HFF-1 cells. In order to confirm if inhibition of proliferation was associated with p53 activation in HCT116 p53^+/+ cells, all compounds were also tested in HCT116 cells in which p53 was knocked out (HCT116 p53^−/−) and the selective index was calculated and compared to the compounds CM-M345 (1) and BP-C4 (2), for which p53-dependent antiproliferative activity was previously reported by our research group (Table 1).
(§2) The colorectal adenocarcinoma HCT116 cells (HCT116 p53^+/+) and its p53-null isogenic derivative (HCT116 p53^−/−) were given by Prof. Vogelstein (The Johns Hopkins Kimmel Cancer Center, Baltimore, USA); the normal human fibroblasts HFF-1 cell lines were from ATCC (Rockville, MD, USA). Human cells were cultured in RPMI-1640 with UltraGlutamine (Lonza, VWR, Portugal) with 10% FBS (Gibco, Alfagene, Portugal) at 37 °C with 5% CO2. The SH-SY5Y cells were cultured in DMEM/F-12 (Lonza) and 10% FBS and 2mM L-glutamine (Gibco). The cells were incubated at 37 °C in a humidified atmosphere of 5% CO2. Mycoplasma was routinely checked using the MycoAlert™ PLUS kit (Lonza). […]

HFF-1 cells = assay: SRB growth inhibition assay in normal fibroblasts HFF-1; format: cell-based, human; details: for SI2: Selective index 2: GI50 of HFF-1/GI50 of HCT116 p53^+/+; for GI50: Homo sapiens, HFF-1, SRB assay, 48 h of treatment
Method: as §1, §2

HCT116 p53^−/− cells = assay: SRB growth inhibition assay in HCT116 p53-/- cells; format: cell-based, human; details: for SI1: Selective index 1: GI50 of HCT116 p53^−/−/GI50 of HCT116 p53^+/+; for GI50: Homo sapiens, HCT-116, SRB assay, 48 h of treatment
Method: as §1, §2

| Compound | GI50 (HCT116 p53^+/+ cells; Homo sapiens, HCT-116, 48 h) [µM] | SI2: Selective index 2 (HFF-1 cells) | GI50 (HFF-1 cells) [µM] | melting point [°C] | SI1: Selective index 1 (HCT116 p53^−/− cells) | GI50 (HCT116 p53^−/− cells) [µM] | GI50 (HCT116 p53^+/+ cells) [µM] | GI50 (HCT116 p53^+/+ cells; Homo sapiens, HCT-116) [µM] |
| --- | --- | --- | --- | --- | --- | --- | --- | --- |
| CCCc1c(OC)ccc(C(O)/C=C/c2cc(OC)c(OC)c(OC)c2)c1O (stereo not drawn) [Compound 28, (E)-6-(1-hydroxy-3-(3,4,5-trimethoxyphenyl)allyl)-3-methoxy-2-propylphenol] | 15 ± 1.73 | 1.13 | 17 ± 4.4 | 219 to 222 | 0.80 | 12 ± 5 |  |  |
| CCCc1c(OC)ccc(C(=O)/C=C/c2cc(OC)c(OC)c(OC)c2)c1OCC=C(C)C [Compound 26, (E)-1-(4-methoxy-2-((3-methylbut-2-en-1-yl)oxy)-3-propylphenyl)-3-(3,4,5-trimethoxyphenyl)prop-2-en-1-one] | 6 ± 0.93 | 1.22 | 7.3 ± 2 | 100 to 103 | 0.77 | 4.6 ± 1.7 |  |  |
| CCCc1c(OC)ccc(C(=O)/C=C/c2ccc(F)cc2)c1O [Compound 33, (E)-3-(4-fluorophenyl)-1-(2-hydroxy-4-methoxy-3-propylphenyl)prop-2-en-1-one] | 9.25 ± 0.75 | 0.89 | 8.23 ± 0.08 | 115 to 117 | 0.77 | 7.2 ± 0.32 |  |  |
| O=C1/C(=C/c2ccc(Cl)cc2)CSC/C1=C\c1ccc(Cl)cc1 [Compound 20] | 1.13 ± 0.17 | 2.01 | 2.27 ± 0.09 | 126 to 128 | 0.93 | 1.05 ± 0.05 |  |  |
| COc1cc2c(cc1OC)C(=O)/C(=C/c1cc(OC)c(OC)c(OC)c1)CC2 [Compound 10, (E)-2-(3,4,5-trimethoxybenzylidene)-6,7-dimethoxy-3,4-dihydronaphthalen-1(2H)-one] | 6.7 to 8.6 | 1.35 | 5.4 ± 0.1 | 145 to 147 | 0.73 | 2.9 ± 0.11 | 4 ± 0.23 |  |
| O=C1/C(=C/c2ccc(Cl)cc2)Cc2ccccc21 [Compound 6] | 21.5 to 30 |  | > 30 | 179 to 181 |  | > 30 | 21.5 ± 1.19 |  |
| COc1cc(/C=C2\CSC/C(=C\c3cc(OC)c(OC)c(OC)c3)C2=O)cc(OC)c1OC [Compound 24] | 0.31 ± 0.03 | 0.74 | 0.23 ± 0.02 | 219 to 222 | 1.84 | 0.57 ± 0.009 |  |  |
| CCCc1c(OC)ccc(C(=O)CCc2cc(OC)c(OC)c(OC)c2)c1O [Compound 29, 1-(2-hydroxy-4-methoxy-3-propylphenyl)-3-(3,4,5-trimethoxyphenyl)propan-1-one] | 18.7 ± 2.19 | 1.18 | 22.1 ± 7.2 |  | 0.60 | 11.2 ± 5.3 |  |  |
| COc1cc2c(cc1OC)C(=O)/C(=C/c1ccc(Cl)cc1)C2 [Compound 8] |  | 0.68 | 5.1 ± 0.9 |  | 0.60 | 4.5 ± 0.28 |  | 7.5 ± 0.45 |
| COc1cc([C@@H]2c3cc4c(cc3[C@@H](O[C@@H]3O[C@@H]5CO[C@@H](C)O[C@H]5[C@H](O)[C@H]3O)[C@H]3COC(=O)[C@H]23)OCO4)cc(OC)c1O [Etoposide, reference compound] | 0.71 |  | 0.35 |  |  |  |  |  |
| O=C1C(Cc2ccc(Cl)cc2)COCC1Cc1ccc(Cl)cc1 (stereo not drawn) [Compound 31, 3,5-bis(4-chlorobenzyl)tetrahydro-4H-pyran-4-one] | > 30 |  | > 30 | 145 to 146 |  | > 30 |  |  |
| COc1cc(/C=C2\CSc3ccccc3C2=O)cc(OC)c1OC [Compound 12, (Z)-3-(3,4,5-trimethoxybenzylidene)thiochroman-4-one] | 5.7 ± 0.51 |  | 6.7 ± 0.4 |  |  | 3.9 ± 0.26 |  |  |
| COc1cc(/C=C2\COc3ccccc3C2=O)cc(OC)c1OC [Compound 11] | 6.7 to 8.6 | 1.32 | 8.3 ± 1.4 | 109 to 111 | 0.97 | 6.1 ± 1 | 6.3 ± 2.18 |  |
| COc1cc2c(cc1OC)C(=O)/C(=C/c1ccc(Cl)cc1)CC2 [Compound 14, (E)-2-(4-chlorobenzylidene)-6,7-dimethoxy-3,4-dihydronaphthalen-1(2H)-one] | 6.7 ± 0.21 |  | 7.7 ± 0.2 |  |  | 4.3 ± 0.15 |  |  |
| COc1cc(/C=C2\CCc3ccccc3C2=O)cc(OC)c1OC [Compound 9] | 5.9 ± 1.28 | 0.93 | 5.5 ± 0.03 |  | 1.32 | 7.8 ± 0.9 |  |  |
| O=C1/C(=C/c2ccc(Cl)cc2)CCc2ccccc21 [Compound 13] | 21.5 to 30 |  | > 30 |  |  | > 30 | > 30 |  |
| COc1cc(/C=C2\CC/C(=C\c3cc(OC)c(OC)c(OC)c3)C2=O)cc(OC)c1OC [Compound 22] | 0.09 ± 0.03 | 1.50 | 0.135 ± 0.004 |  | 0.78 | 0.07 ± 0.01 |  |  |
| COc1cc(/C=C2\Cc3c(ccc(OC)c3OC)C2=O)cc(OC)c1OC [Compound 4, (E)-2-(3,4,5-trimethoxybenzylidene)-4,5-dimethoxy-2,3-dihydro-1H-inden-1-one] |  | 1.34 | 5.1 ± 0.9 | 165 to 168 | 0.82 | 3.1 ± 0.22 |  | 3.8 ± 0.32 |
| COc1cc2c(cc1OC)C(=O)/C(=C/c1cc(OC)c(OC)c(OC)c1)C2 [Compound 5] | 6.1 ± 0.12 | 0.52 | 3.2 ± 0.07 | 156 to 159 | 0.67 | 4.1 ± 0.36 |  |  |
| O=C1/C(=C/c2ccc(Cl)cc2)CCC/C1=C\c1ccc(Cl)cc1 [Compound 19] | 3.1 ± 0.1 | 4.55 | 14.1 ± 0.12 |  | 0.95 | 2.95 ± 0.15 |  |  |
| CCCc1c(OC)ccc(C(=O)/C=C/c2ccc(N(C)C)cc2)c1O [Compound 35, (E)-3-(4-(dimethylamino)phenyl)-1-(2-hydroxy-4-methoxy-3-propylphenyl)prop-2-en-1-one] |  | 1.31 | 14 ± 3.6 | 126 to 128 | 1.52 | 16.3 ± 2.6 |  |  |
| COc1cc(/C=C2\CCC/C(=C\c3cc(OC)c(OC)c(OC)c3)C2=O)cc(OC)c1OC [Compound 23] | 2.3 ± 0.03 | 0.72 | 1.65 ± 0.04 |  | 0.24 | 0.56 ± 0.07 |  |  |
| O=C1/C(=C/c2ccc(Cl)cc2)COc2ccccc21 [Compound 15] | 8.6 ± 0.5 | 0.49 | 4.25 ± 0.32 |  | 0.62 | 5.29 ± 0.19 |  |  |
| O=C1/C(=C/c2ccc(Cl)cc2)CC/C1=C\c1ccc(Cl)cc1 [Compound 18] | > 30 |  | > 30 |  |  | > 30 |  |  |
| CCCc1c(OC)ccc2c(=O)cc(-c3cc(OC)c(OC)c(OC)c3)oc12 [Compound 27, 7-methoxy-8-propyl-2-(3,4,5-trimethoxyphenyl)-4H-chromen-4-one] | > 30 |  | > 30 | 153 to 155 |  | > 30 |  |  |
| CC(C)=CCOc1ccc(/C=C2\COC/C(=C\c3ccc(OCC=C(C)C)cc3)C2=O)cc1 [Compound 40, 3,5-bis((E)-4-((3-methylbut-2-en-1-yl)oxy)benzylidene)tetrahydro-4H-pyran-4-one] | 9.51 | 1.48 | 14.1 ± 0.08 | 145 to 147 | 0.61 | 5.8 ± 0.21 | 9.53 ± 0.25 |  |
| OC1/C(=C/c2ccc(Cl)cc2)COC/C1=C\c1ccc(Cl)cc1 (stereo not drawn) [Compound 30, 3,5-bis((E)-4-chlorobenzylidene)tetrahydro-2H-pyran-4-ol] | > 30 |  | > 30 | 219 to 222 |  | > 30 |  |  |
| COc1ccc2c(c1OC)C/C(=C\c1ccc(Cl)cc1)C2=O [Compound 7, (E)-2-(4-chlorobenzylidene)-4,5-dimethoxy-2,3-dihydro-1H-inden-1-one] | 7.4 ± 0.56 | 0.64 | 4.7 ± 0.5 | 206 to 209 | 0.61 | 4.5 ± 0.13 |  |  |
| CC(C)=CCOc1ccccc1/C=C1\COC/C(=C\c2ccccc2OCC=C(C)C)C1=O [Compound 38, 3,5-bis((E)-2-((3-methylbut-2-en-1-yl)oxy)benzylidene)tetrahydro-4H-pyran-4-one] | > 30 |  | > 30 |  |  | > 30 |  |  |
| COc1cc(/C=C/C(=O)/C=C/c2cc(OC)c(OC)c(OC)c2)cc(OC)c1OC [Compound 21] | > 30 |  | > 30 |  |  | > 30 |  |  |
